Assay type in all cases: in vivo
One data set relates to Drebrin. The data set is described as follows: Western blot of hippocampus, 3×Tg mice: Drebrin. As to the method: (§1) Female and male 3×Tg mice (MMRRC #034830) were treated daily for 20 weeks with PTG-670 trihydrochloride at 1 and 5 mg/kg in drinking water starting at 19 weeks of age (˜5 months old) (just before cognitive deficits onset).
(§2) Mouse Hippocampus were processed for Western blotting analysis of Drebrin (actin binding protein in dendritic spines, role in neuronal growth, a decrease is a contributing factor in the pathogenesis of memory disturbance), PSD95 (a post-synaptic protein, role in the regulation of excitatory synapse maturity), and NeuN (neuronal nuclear antigen, biomarker for neurons, decrease=neuronal loss) (FIG. 12). The reduced drebrin levels in the hippocampus of 3×Tg mice was ameliorated by 20 weeks of treatment with PTG-670 at 5 mg/kg in drinking water only for female mice. Similarly, levels of PSD95 protein tend to decrease in 3×Tg mice and to be ameliorated by 5 mg/kg PTG670.
(In general: In western blotting, separated proteins are transferred to a membrane and probed.)

The subject of data set [1] is 3×Tg mice. The data set is described as follows: Tactile response (manual von Frey filaments), 3×Tg mice. To be noted: 3×Tg mice did not develop tactile allodynia. The procedure: as §1
(§3) Tactile and thermal responses were assessed at 5 and 11 weeks. Motor nerve conduction velocity (NCV) was measured at 8, 12 and 20 weeks after treatment. Learning and memory were assessed using the Barnes maze test and the object recognition test at 6, 12, and 18 weeks of treatment. Corneal nerves were imaged by corneal confocal microscopy (CCM) at week 5, 11 and 17. Data represent male and female results combined, unless specified, mean±sem.

The subject of a further data set is 4-hydroxynonal (4-HNE). The data set is described as follows: Lipid peroxidation, 4-HNE Oxiselect Elisa in hippocampus homogenates, 3×Tg mice. To be noted: 5 mg/kg. The procedure:
as §1
Lipid peroxidation was assessed using the 4-Hydroxynonal (4-HNE) Oxiselect Elisa in hippocampus homogenates.

Data set [2] can be described thus: Mortality and apparent toxicity, 20 weeks in 3×Tg mice. To be noted: 1 and 5 mg/kg in drinking water. The procedure: as §1
• 1—Control (B6129SF2/J Jax 101045)), N=7 male, N=7 female, • 2—3×Tg, N=7 male, N=7 female, • 3—3×Tg+PTG-670 1 mg/kg drinking water, N=7 male, N=7 female, • 4—3×Tg+PTG-670 5 mg/kg drinking water, N=7 male, N=7 female.
No mice died during the course of the study.

For data set [3], the system named is 3×Tg mice. The data set is described as follows: Motor nerve conduction velocity (NCV), 3×Tg mice. To be noted: male 3×Tg mice, 20 weeks time point. As to the method:
as §1, §3
Male 3×Tg mice develop significant (p<0.05) nerve conduction velocity slowing by 9 months of age (20 weeks time point) (data not shown). The slowing of NCV was prevented by treatment with PTG-670 at both 1 and 5 mg/kg in drinking water.

The subject of data set [4] is 3×Tg mice. The data set is described as follows: Thermal response to heat stimuli, 3×Tg mice. To be noted: 3×Tg mice did not develop significant hypoalgesia. The procedure: as §1, §3
For the next data set, the system named is NeuN. The data set is described as follows: Western blot of hippocampus, 3×Tg mice: NeuN. The procedure: as §1, §2
The test system of data set [5] is 3×Tg mice. The data set is described as follows: Barnes maze long-term memory, 3×Tg mice. The procedure:
as §1, §3
Using the Barnes maze test, long-term memory was assessed between week 12 and 18 of treatment.

The test system of data set [6] is 3×Tg mice. The data set is described as follows: Object Recognition test, 3×Tg mice. To be noted: for short term episodic memory deficits in Object recognition test: 5 mg/kg. As to the method:
as §1, §3

The next data set has as its system PSD95. The data set is described as follows: Western blot of hippocampus, 3×Tg mice: PSD95. The procedure: as §1, §2
Data set [7] relates to 3×Tg mice. The data set is described as follows: Barnes maze learning abilities, 3×Tg mice. As to the method: as §1, §3
Learning abilities assessed using the Barnes maze were impaired in 3×Tg mice in both male and female around 6-7 months, conform with the literature (Stover et al., 2015).

`Cc1ncc(CN2CCCCCC2)c(-c2ncc[nH]2)c1O` [PTG-670, 5-(azepan-1-ylmethyl)-4-(1H-imidazol-2-yl)-2-methylpyridin-3-ol]: the “reduced drebrin levels in hippocampus” value with Drebrin (female mice only, 5 mg/kg in drinking water, 20 weeks) was “ameliorated”. In addition, the Drebrin in hippocampus result with Drebrin (male 3×Tg mice) was “No differences were observed”. Further, in the data set on 3×Tg mice [1], the “responses to von Frey filaments” value is “did not affect mice responses to von Frey filaments”. For the same compound, the “4-HNE levels in hippocampus” value in the data set with 4-hydroxynonal (4-HNE) is on record as “tend to reduce HNE levels”. Further, in data set [2], the apparent toxicity entry was “No apparent toxicity was observed”. For the same compound, the “slowing of NCV” value in the data set with 3×Tg mice [3] (1 mg/kg in drinking water) and in the data set with 3×Tg mice [3] (5 mg/kg in drinking water) was “prevented” in each case. For the same compound, the “responses to heat stimuli” value in the data set with 3×Tg mice [4] is reported as “did not affect the 3×Tg mice responses to heat stimuli”. For the same compound, in the data set with NeuN (female mice only, 5 mg/kg), the “neuronal loss (NeuN) in hippocampus” value was “significantly (p<0.05) elevated”. In the data set with NeuN (male 3×Tg mice), the NeuN in hippocampus result is reported as “No differences were observed”. In the data set with 3×Tg mice [5] (female 3×Tg mice, 1 mg/kg, by week 18 of treatment), the “long-term memory impairment in Barnes maze” value is reported as “significantly (p<0.05) prevented”. The “memory abilities in Barnes maze” value in the data set with 3×Tg mice [5] (male 3×TG mice) was “No difference in memory abilities or effect”. The “short term episodic memory deficits in Object recognition test” value in the data set with 3×Tg mice [6] (after 6 weeks of treatment) and with 3×Tg mice [6] (after 18 weeks of treatment) was “significantly (p<0.05) ameliorated” throughout. For the same compound, the “short-term episodic memory (recognition index)” value with 3×Tg mice [6] (FIG. 10 legend, 6 to 18 weeks of treatment) is “alleviated”. Also, in the data set with PSD95 (5 mg/kg, tendency), the “levels of PSD95 protein in hippocampus” value is “ameliorated”. For the same compound, in the data set with PSD95 (male 3×Tg mice), the PSD95 in hippocampus result was “No differences were observed”. The “learning abilities in Barnes maze” value in the data set on 3×Tg mice [7] (female 3×Tg mice, 1 mg/kg for 18 weeks) is listed as “significantly improved learning abilities to level similar to control”. Further, the “learning deficits in Barnes maze” value in the data set with 3×Tg mice [7] (male 3×Tg mice) is given as “did not improve learning deficits”.
